The results in this text go back to US20250051375A1, “ANTI-HIV COMPOUNDS” (Gilead Sciences, Inc., priority 2023, published 2025).

Converted amounts (≈) assume the structure as drawn. Like-named read-outs stand apart in the source and are kept apart here.

The test system of data set [1] is HIV-1 IIIB strain. The experiment in a line: MT-4 HIV Wild Type Virus Infection Assay (IIIB Virus). The data set is classed as cell-based. Conditions: MT-4 cells acutely infected with HIV-1 IIIB, 5 day incubation, Cell-titer glo. In short, it runs like this: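 MT-4 cells at 2×10^6 cells/ml in RPMI/10% FBS were acutely infected with HIV-1 IIIB for 1 h at 37° C, diluted 25× and added to serially diluted compounds. After 5 days at 37° C, viability read by CellTiter-Glo luminescence; EC50 from dose-response curves.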

Data set [2] has as its target bovine intestinal alkaline phosphatase (Bos taurus (Bovine), UniProt P19111). As to the kind of experiment: BiALP: conversion by bovine intestinal alkaline phosphatase. Format: in vitro ADME. Conditions: 2 μM substrate, 100 ng/mL iALP, Tris pH 7.8, 37° C., 60 minutes; for [Intermediate A] or [Amprenavir]: parent formed. In a few lines:
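Compounds at 2 μM final were incubated 60 min at 37° C in 0.1 M Tris-HCl pH 7.8 with 1 mM MgCl2 and 1 mM ZnCl2, with or without 100 ng/mL iALP (0.01 units/mL). Samples were quenched with acetonitrile/formic acid containing labetalol. Conversion was quantified by LC-MS peak area ratios against a 2 μM product standard.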

The nature of data set [3]: PBS Stability Assay. Format: physicochemical. Conditions: phosphate buffered saline pH 7.4; for half-life at 2 μM: buffer, pH 7.4, 2 μM, read-out: PBS T½. In short, it runs like this:
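Test compound at 2 μM final was incubated in PBS, pH 7.4, and sampled at 0, 10, 20, 30, 60 and 120 min into acetonitrile/1% formic acid quench with labetalol internal standard. Remaining compound was quantified by LC-MS peak-area ratio, and half-life came from a first-order exponential fit.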

Data set [4] can be described thus: Solubility in FaSSIF. Conditions: for solubility at 2 h: 23 °C, pH 6.5, fassif, thermodynamic from solid. In a few lines:
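Concentration measured by HPLC-UV after solid compound was dosed at 5 mg/mL into pH 6.5 fasted-state simulated intestinal fluid containing taurocholate and lecithin (4:1 molar) and vortexed.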

Where [5] appears, read: Human immunodeficiency virus 1, IIIB, MT4, 120 h.

Chain of bovine intestinal alkaline phosphatase (P19111 20-506): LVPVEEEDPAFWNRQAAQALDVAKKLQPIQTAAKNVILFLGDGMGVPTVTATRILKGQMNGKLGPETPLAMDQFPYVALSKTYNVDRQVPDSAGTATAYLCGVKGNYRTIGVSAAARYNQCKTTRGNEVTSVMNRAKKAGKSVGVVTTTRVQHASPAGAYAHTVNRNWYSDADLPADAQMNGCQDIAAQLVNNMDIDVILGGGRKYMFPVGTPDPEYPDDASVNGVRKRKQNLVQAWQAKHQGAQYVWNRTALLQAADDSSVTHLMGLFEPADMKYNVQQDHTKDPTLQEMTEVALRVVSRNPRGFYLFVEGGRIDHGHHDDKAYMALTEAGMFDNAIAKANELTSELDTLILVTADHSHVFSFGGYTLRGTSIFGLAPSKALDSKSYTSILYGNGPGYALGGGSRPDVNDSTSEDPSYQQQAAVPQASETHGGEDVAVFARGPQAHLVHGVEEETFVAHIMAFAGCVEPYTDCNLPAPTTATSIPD

Turning to `COC(=O)N[C@H](C(=O)N[C@@H](Cc1ccc(C#Cc2cnc(N3CC4CCC(C3)N4C3COC3)nc2)cc1)[C@H](CN(Cc1c(F)cc(-c2ccn(C(F)F)n2)cc1F)NC(=O)[C@@H](NC(=O)OC)C(C)(C)C(F)(F)F)OC(=O)CC(C)(C)c1c(CC(=O)NC(CC(=O)O)CC(=O)O)cc(C)cc1OP(=O)(O)O)C(C)(C)C(F)(F)F` [Example 43], a half-maximal response in data set [1] (setting [5]) (EC50) required 85.9 nM. Also, the “[Compound]” value in data set [2] worked out at 1661.5 nM. Further, the half-life at 2 μM in data set [3] amounted to 4.82 h. Besides, the solubility (commonly how much of the substance goes into solution per volume) at 2 h in data set [4] came to 1920 µg/mL (≈ 1190 µM).
On to `COC(=O)N[C@H](C(=O)N[C@@H](Cc1ccc(C#Cc2cnc(N3CC4CCC(C3)N4C3COC3)nc2)cc1)[C@H](CN(Cc1c(F)cc(-c2ccn(C(F)F)n2)cc1F)NC(=O)[C@@H](NC(=O)OC)C(C)(C)C(F)(F)F)OC(=O)CC(C)(C)c1c(CC(=O)N(CCC(=O)O)[C@@H](CCC(=O)O)C(=O)O)cc(C)cc1OP(=O)(O)O)C(C)(C)C(F)(F)F` [Example 44], for which the response in data set [1] (setting [5]) was half-maximal at 528 nM (EC50). For the same compound, the “[Compound]” value in data set [2] was 1835.9 nM. Further, the half-life at 2 μM in data set [3] was found to be 4.67 h. Besides, the solubility at 2 h in data set [4] came out at 4550 µg/mL (≈ 2700 µM).
Consider `COC(=O)N[C@H](C(=O)N[C@@H](Cc1ccc(C#Cc2cnc(N3CC4CCC(C3)N4C3COC3)nc2)cc1)[C@H](CN(Cc1c(F)cc(-c2ccn(C(F)F)n2)cc1F)NC(=O)[C@@H](NC(=O)OC)C(C)(C)C(F)(F)F)OC(=O)CC(C)(C)c1c(CC(=O)N[C@@H](Cc2c[nH]c3ccccc23)C(=O)O)cc(C)cc1OP(=O)(O)O)C(C)(C)C(F)(F)F` [Example 48], for which a half-maximal effect in data set [1] (setting [5]) (EC50) was put at 201 nM. Also, the “[Compound]” value in data set [2] is recorded as 2071.6 nM. For the same compound, in data set [3], the half-life at 2 μM came to 4.76 h. Moreover, the solubility at 2 h in data set [4] worked out at 910 µg/mL (≈ 545 µM).
With `COC(=O)N[C@H](C(=O)N[C@@H](Cc1ccc(C#Cc2cnc(N3CC4CCC(C3)N4C3COC3)nc2)cc1)[C@H](CN(Cc1c(F)cc(-c2ccn(C(F)F)n2)cc1F)NC(=O)[C@@H](NC(=O)OC)C(C)(C)C(F)(F)F)OC(=O)CC(C)(C)c1c(CC(=O)NCc2ccc(C(F)F)cc2)cc(C)cc1OP(=O)(O)O)C(C)(C)C(F)(F)F` [Example 50, (5S,10S,11S,14S)-8-(4-(1-(difluoromethyl)-1H-pyrazol-3-yl)-2,6-difluorobenzyl)-11-(4-((2-(8-(oxetan-3-yl)-3,8-diazabicyclo[3.2.1]octan-3-yl)pyrimidin-5-yl)ethynyl)benzyl)-3,6,13,16-tetraoxo-5,14-bis(1,1,1-trifluoro-2-methylpropan-2-yl)-2,17-dioxa-4,7,8,12,15-pentaazaoctadecan-10-yl 3-(2-(2-((4-(difluoromethyl)benzyl)amino)-2-oxoethyl)-4-methyl-6-(phosphonooxy)phenyl)-3-methylbutanoate], the EC50 (commonly the concentration at which the effect is half-maximal) in data set [1] (setting [5]) worked out at 1720 nM. Further, in data set [2], the “[Compound]” value turned out to be 2228.1 nM, the “biALP Intermediate A or [Amprenavir] (% of total)” value is 0 % of total and the “[Intermediate A] or [Amprenavir]” value is reported as 0.3 nM. The half-life at 2 μM in data set [3] was 8.26 h. This compound registered a solubility at 2 h in data set [4] of under 1000 µg/mL.
As to `COC(=O)N[C@H](C(=O)N[C@@H](Cc1ccc(C#Cc2cnc(N3CC4CCC(C3)N4C3COC3)nc2)cc1)[C@H](CN(Cc1c(F)cc(-c2ccn(C(F)F)n2)cc1F)NC(=O)[C@@H](NC(=O)OC)C(C)(C)C(F)(F)F)OC(=O)O[C@H](C)OC(=O)CC(C)(C)c1c(CC(=O)O)cc(C)cc1OP(=O)(O)O)C(C)(C)C(F)(F)F` [Example 65], in data set [1] (read-out: EC50), the EC50 came out at 12.6 nM. For the same compound, the “[Compound]” value in data set [2] came out at 1224.6 nM. The “PBS T½” value in data set [3] (2 μM) was determined as 11.15 h. Also, in data set [4] (FaSSIF pH 6.5, dose 5 mg/mL, 2-hour incubation, ambient temperature), the “FaSSIF (pH 6.5) solubility” value turned out to be 1310 μg/mL.
Take `COC(=O)N[C@H](C(=O)N[C@@H](Cc1ccc(C#Cc2cnc(N3CC4CCC(C3)N4C3COC3)nc2)cc1)[C@H](CN(Cc1c(F)cc(-c2ccn(C(F)F)n2)cc1F)NC(=O)[C@@H](NC(=O)OC)C(C)(C)C(F)(F)F)OC(=O)CC(C)(C)c1c(CC(=O)N2CC(C(=O)O)CC(C(=O)O)C2)cc(C)cc1OP(=O)(O)O)C(C)(C)C(F)(F)F` (stereo partly shown) [Example 67]: in data set [1] (setting [5]), the concentration giving a half-maximal response (EC50) stood at 205 nM. Besides, in data set [2], the “[Compound]” value amounted to 1747.2 nM, the “biALP Intermediate A or [Amprenavir] (% of total)” value is reported as 9.1 % of total and the “[Intermediate A] or [Amprenavir]” value stood at 175.4 nM. For the same compound, the half-life at 2 μM in data set [3] was found to be 4.32 h. In data set [4], the solubility at 2 h came to 3160 µg/mL (≈ 1930 µM).
As for `COC(=O)N[C@H](C(=O)N[C@@H](Cc1ccc(C#Cc2cnc(N3CC4CCC(C3)N4C3COC3)nc2)cc1)[C@H](CN(Cc1c(F)cc(-c2ccn(C(F)F)n2)cc1F)NC(=O)[C@@H](NC(=O)OC)C(C)(C)C(F)(F)F)OC(=O)OCOC(=O)CC(C)(C)c1c(CC(=O)N[C@@H](CC(=O)O)C(=O)O)cc(C)cc1OP(=O)(O)O)C(C)(C)C(F)(F)F` [Example 68], the EC50 in data set [1] (setting [5]) came out at 5.9 nM. Also, the “[Compound]” value in data set [2] was found to be 1478.2 nM. In addition, the half-life at 2 μM in data set [3] was determined as 6.27 h. For the same compound, the solubility at 2 h in data set [4] amounted to 4440 µg/mL (≈ 2650 µM).
The like results for `COC(=O)N[C@H](C(=O)N[C@@H](Cc1ccc(C#Cc2cnc(N3CC4CCC(C3)N4C3COC3)nc2)cc1)[C@H](CN(Cc1c(F)cc(-c2ccn(C(F)F)n2)cc1F)NC(=O)[C@@H](NC(=O)OC)C(C)(C)C(F)(F)F)OC(=O)OCOC(=O)CC(C)(C)c1c(CC(=O)NCP(=O)(O)O)cc(C)cc1OP(=O)(O)O)C(C)(C)C(F)(F)F` [Example 69] were, in that order, 3.5 nM, 1578.5 nM, 13.1 h and 4950 µg/mL (≈ 3000 µM).
Regarding `COC(=O)N[C@H](C(=O)N[C@@H](Cc1ccc(C#Cc2cnc(N3CC4CCC(C3)N4C3COC3)nc2)cc1)[C@H](CN(Cc1c(F)cc(-c2ccn(C(F)F)n2)cc1F)NC(=O)[C@@H](NC(=O)OC)C(C)(C)C(F)(F)F)OC(=O)OCOC(=O)CC(C)(C)c1c(CC(=O)N[C@@H](CCC(=O)O)C(=O)O)cc(C)cc1OP(=O)(O)O)C(C)(C)C(F)(F)F` [Example 70], the 50% effective concentration (EC50) in data set [1] (setting [5]) stood at 6.6 nM. For the same compound, the “[Compound]” value in data set [2] is recorded as 1164.8 nM. The half-life at 2 μM in data set [3] came to 5.27 h. In data set [4], this compound displayed a solubility at 2 h of 5570 µg/mL (≈ 3300 µM).
`COC(=O)N[C@H](C(=O)N[C@@H](Cc1ccc(C#Cc2cnc(N3CC4CCC(C3)N4C3COC3)nc2)cc1)[C@H](CN(Cc1c(F)cc(-c2ccn(C(F)F)n2)cc1F)NC(=O)[C@@H](NC(=O)OC)C(C)(C)C(F)(F)F)OC(=O)OCOC(=O)CC(C)(C)c1c(CC(=O)NCC(=O)O)cc(C)cc1OP(=O)(O)O)C(C)(C)C(F)(F)F` [Example 71] showed an EC50 in data set [1] (setting [5]) of 3.9 nM. In addition, the “[Compound]” value in data set [2] was determined as 1036.2 nM. Besides, the half-life at 2 μM in data set [3] stood at 7.86 h. For the same compound, in data set [4], the concentration in solution (solubility at 2 h) came to 4420 µg/mL (≈ 2740 µM).
`COC(=O)N[C@H](C(=O)N[C@@H](Cc1ccc(C#Cc2cnc(N3CC4CCC(C3)N4C3COC3)nc2)cc1)[C@H](CN(Cc1c(F)cc(-c2ccn(C(F)F)n2)cc1F)NC(=O)[C@@H](NC(=O)OC)C(C)(C)C(F)(F)F)OC(=O)OCOC(=O)CC(C)(C)c1c(CC(=O)N[C@@H](CC(N)=O)C(=O)O)cc(C)cc1OP(=O)(O)O)C(C)(C)C(F)(F)F` [Example 72]: in data set [1] (setting [5]), it took 5.4 nM to reach a half-maximal effect (EC50). The “[Compound]” value in data set [2] was 827.8 nM. Further, the half-life at 2 μM in data set [3] came to 6.12 h. The solubility at 2 h in data set [4] was 4980 µg/mL (≈ 2980 µM).
The compound `COC(=O)N[C@H](C(=O)N[C@@H](Cc1ccc(C#Cc2cnc(N3CC4CCC(C3)N4C3COC3)nc2)cc1)[C@H](CN(Cc1c(F)cc(-c2ccn(C(F)F)n2)cc1F)NC(=O)[C@@H](NC(=O)OC)C(C)(C)C(F)(F)F)OC(=O)OCOC(=O)CC(C)(C)c1c(CC(=O)NC(C)(C)CCC(=O)O)cc(C)cc1OP(=O)(O)O)C(C)(C)C(F)(F)F` [Example 73] gave an EC50 in data set [1] (setting [5]) of 4.6 nM. Further, the “[Compound]” value in data set [2] turned out to be 1660.4 nM. For the same compound, the half-life at 2 μM in data set [3] is 6.36 h. In data set [4], this compound registered a solubility at 2 h of 145 µg/mL (≈ 86.7 µM).
